Experimental data published in US20230416330A1, “Optimized GIP Peptide Analogues” (Antag Therapeutics ApS, priority 2019, published 2023).
Non-standard residues stand in square brackets, D forms with d. Residues, ends and D or L forms follow the SMILES beside them. *: point of attachment. C20 diacid = O=C(O)CCCCCCCCCCCCCCCCCCC(=O)*; C16 diacid = O=C(O)CCCCCCCCCCCCCCC(=O)*; Palmitoyl = CCCCCCCCCCCCCCCC(=O)*; Aib = CC(C)(N)C(=O)O

Columns and labels:
[1] = Physical stability: fibril formation in Thioflavin T (ThT) assay with agitation; assay type: physicochemical; conditions: TFA, 25° C., agitation
Procedure: Continuous measurement of the fluorescence emission at 486 nm can be used as a measure of fibrillation behavior of peptides and proteins. The time until onset of fibrillation or fibrillation lag time is estimated here by defining the lag time (Tlag) as the point in time where the signal relative to the pre-transition baseline has reached 10% of the post-transition baseline.
50 mM sodium phosphate buffer for dissolving some samples was prepared in ultrapure water (Milli-Q® Reference A+ System, Merck) with a resistivity of 18.2 MΩ·cm. The buffer was adjusted to pH 7.4 and filtered.
The ultrapure water (MilliQ) for dissolving some samples was adjusted to pH 7.4 with NaOH and filtered prior to sample preparation.
(§1) Peptides were either dissolved in sodium phosphate buffer (50 mM, pH 7.4, filtered) or dissolved in ultrapure (MilliQ) water (adjusted to pH 7.4 with NaOH, filtered) (see Table 3). All peptide samples were prepared to a concentration of 1, 5, 7.5 or 15 mg/ml. All samples, with the exception of reference peptides GIP(3-30), AT158, and AT482 dissolved readily and produced clear and colorless solutions with gentle mixing. Peptide samples were subsequently filtered through 0.22 μm nylon filters (Q-Max® RR syringe filter, 13 mm, Frisenette, DK) to produce particle-free solutions. All samples were added to a 96-well plate reader for the ThT assay at t=0.
For each sample, […] ThT (1 mM) was added to 1.2 mL peptide solution. From this sample mixture, an amount of 200 uL/well was pipetted into four or five wells (n=4 or 5). Blank samples (buffer+ThT) were also included. One 3 mm silica bead was added to each well containing samples and the plate was subjected to orbital rotation at 300 rpm to agitate and stress the samples. The temperature was kept at 25° C. throughout the measurement.

[2] = Solubility by visual inspection of peptide solutions; assay type: physicochemical; conditions: TFA
Procedure: as §1
Clear visual appearance may be taken as an indicator of the immediate solubility of the peptide. […] Thus, A13Aib and/or N24E substitutions appear to increase solubility.

Structure (SMILES): CC[C@H](C)[C@H](NC(=O)[C@H](CO)NC(=O)[C@H](Cc1ccc(O)cc1)NC(=O)[C@H](CC(=O)O)NC(=O)[C@H](CO)NC(=O)[C@@H](NC(=O)[C@H](Cc1ccccc1)NC(=O)[C@@H](NC(=O)CNC(=O)[C@@H](N)CCC(=O)O)[C@@H](C)O)[C@@H](C)CC)C(=O)N[C@@H](C)C(=O)N[C@@H](CCSC)C(=O)N[C@@H](CC(=O)O)C(=O)N[C@@H](CCCCN)C(=O)N[C@H](C(=O)N[C@@H](CCCCNC(=O)CCCCCCCCCCCCCCC(=O)O)C(=O)N[C@@H](CCC(N)=O)C(=O)N[C@@H](CCC(N)=O)C(=O)N[C@@H](C)C(=O)N[C@@H](Cc1ccccc1)C(=O)N[C@H](C(=O)N[C@@H](CCC(=O)O)C(=O)N[C@@H](Cc1c[nH]c2ccccc12)C(=O)N[C@@H](CC(C)C)C(=O)N[C@@H](CC(C)C)C(=O)N[C@@H](C)C(=O)N[C@@H](CCC(N)=O)C(=O)N[C@@H](CCCCN)C(=O)N1CCC[C@H]1C(=O)N[C@@H](CO)C(=O)N[C@@H](CO)C(=O)NCC(=O)N[C@@H](C)C(=O)N1CCC[C@H]1C(=O)N1CCC[C@H]1C(=O)N1CCC[C@H]1C(=O)N[C@@H](CO)C(=O)O)C(C)C)[C@@H](C)CC [AT745] (H-EGTFISDYSIAMDKIK(C16 diacid)QQAFVEWLLAQKPSSGAPPPS-OH; N-terminus assumed)
- Avr lag time ([1]; 1 mg/ml, Phosphate (7.4)): <24 h
- Visual appearance ([2]; 1 mg/ml, Phosphate (7.4)): Clear

Structure (SMILES): CC[C@H](C)[C@H](NC(=O)[C@H](C)NC(=O)[C@H](Cc1ccc(O)cc1)NC(=O)[C@H](CC(=O)O)NC(=O)[C@H](CO)NC(=O)[C@@H](NC(=O)[C@H](Cc1ccccc1)NC(=O)[C@@H](NC(=O)CNC(=O)[C@@H](N)CCC(=O)O)[C@@H](C)O)[C@@H](C)CC)C(=O)N[C@@H](C)C(=O)N[C@@H](CCSC)C(=O)N[C@@H](CC(=O)O)C(=O)N[C@@H](CCCCN)C(=O)N[C@H](C(=O)N[C@@H](CCCCNC(=O)CCCCCCCCCCCCCCC(=O)O)C(=O)N[C@@H](CCC(N)=O)C(=O)N[C@@H](CCC(N)=O)C(=O)N[C@@H](CC(=O)O)C(=O)N[C@@H](Cc1ccccc1)C(=O)N[C@H](C(=O)N[C@@H](CCC(=O)O)C(=O)N[C@@H](Cc1c[nH]c2ccccc12)C(=O)N[C@@H](CC(C)C)C(=O)N[C@@H](CC(C)C)C(=O)N[C@@H](C)C(=O)N[C@@H](CCC(N)=O)C(=O)N[C@@H](CCCCN)C(=O)N1CCC[C@H]1C(=O)N[C@@H](CO)C(=O)N[C@@H](CO)C(=O)NCC(=O)N[C@@H](C)C(=O)N1CCC[C@H]1C(=O)N1CCC[C@H]1C(=O)N1CCC[C@H]1C(=O)N[C@@H](CO)C(=O)O)C(C)C)[C@@H](C)CC [AT746] (H-EGTFISDYAIAMDKIK(C16 diacid)QQDFVEWLLAQKPSSGAPPPS-OH; N-terminus assumed)
- Avr lag time (h) ([1]; 1 mg/ml, Phosphate (7.4)): fnd (Fnd = fibrils not detected within experiment time (96 hours) with agitation.)
- Visual appearance ([2]; 1 mg/ml, Phosphate (7.4)): Clear

Structure (SMILES): CC[C@H](C)[C@H](NC(=O)[C@H](C)NC(=O)[C@H](CC(=O)O)NC(=O)[C@H](CCSC)NC(=O)[C@H](C)NC(=O)[C@@H](NC(=O)[C@H](CO)NC(=O)[C@H](Cc1ccc(O)cc1)NC(=O)[C@H](CC(=O)O)NC(=O)[C@H](CO)NC(=O)[C@@H](NC(=O)[C@H](Cc1ccccc1)NC(=O)[C@@H](NC(=O)CNC(=O)[C@@H](N)CCC(=O)O)[C@@H](C)O)[C@@H](C)CC)[C@@H](C)CC)C(=O)N[C@@H](CCCCNC(=O)CCCCCCCCCCCCCCC(=O)O)C(=O)N[C@@H](CCC(N)=O)C(=O)N[C@@H](CCC(N)=O)C(=O)N[C@@H](CC(=O)O)C(=O)N[C@@H](Cc1ccccc1)C(=O)N[C@H](C(=O)N[C@@H](CCC(=O)O)C(=O)N[C@@H](Cc1c[nH]c2ccccc12)C(=O)N[C@@H](CC(C)C)C(=O)N[C@@H](CC(C)C)C(=O)N[C@@H](C)C(=O)N[C@@H](CCC(N)=O)C(=O)N[C@@H](CCCCN)C(=O)N1CCC[C@H]1C(=O)N[C@@H](CO)C(=O)N[C@@H](CO)C(=O)NCC(=O)N[C@@H](C)C(=O)N1CCC[C@H]1C(=O)N1CCC[C@H]1C(=O)N1CCC[C@H]1C(=O)N[C@@H](CO)C(=O)O)C(C)C [AT748] (H-EGTFISDYSIAMDAIK(C16 diacid)QQDFVEWLLAQKPSSGAPPPS-OH; N-terminus assumed)
- Avr lag time ([1]; 1 mg/ml, Phosphate (7.4)): <24 h
- Visual appearance ([2]; 1 mg/ml, Phosphate (7.4)): Clear

Structure (SMILES): CC[C@H](C)[C@H](NC(=O)[C@H](CO)NC(=O)[C@H](Cc1ccc(O)cc1)NC(=O)[C@H](CC(=O)O)NC(=O)[C@H](CO)NC(=O)[C@@H](NC(=O)[C@H](Cc1ccccc1)NC(=O)[C@@H](NC(=O)CNC(=O)[C@@H](N)CCC(=O)O)[C@@H](C)O)[C@@H](C)CC)C(=O)N[C@@H](C)C(=O)N[C@@H](CCSC)C(=O)N[C@@H](CC(=O)O)C(=O)N[C@@H](CCCCN)C(=O)N[C@H](C(=O)N[C@@H](CCCCNC(=O)CCCCCCCCCCCCCCCCCCC(=O)O)C(=O)N[C@@H](CCC(N)=O)C(=O)N[C@@H](CCC(N)=O)C(=O)N[C@@H](CC(=O)O)C(=O)N[C@@H](Cc1ccccc1)C(=O)N[C@H](C(=O)N[C@@H](CCC(=O)O)C(=O)N[C@@H](Cc1c[nH]c2ccccc12)C(=O)N[C@@H](CC(C)C)C(=O)N[C@@H](CC(C)C)C(=O)N[C@@H](C)C(=O)N[C@@H](CCC(N)=O)C(=O)N[C@@H](CCCCN)C(=O)N1CCC[C@H]1C(=O)N[C@@H](CO)C(=O)N[C@@H](CO)C(=O)NCC(=O)N[C@@H](C)C(=O)N1CCC[C@H]1C(=O)N1CCC[C@H]1C(=O)N1CCC[C@H]1C(=O)N[C@@H](CO)C(=O)O)C(C)C)[C@@H](C)CC [AT750] (H-EGTFISDYSIAMDKIK(C20 diacid)QQDFVEWLLAQKPSSGAPPPS-OH; N-terminus assumed)
- Avr lag time (h) ([1]; 1 mg/ml, Phosphate (7.4)): fnd (Fnd = fibrils not detected within experiment time (96 hours) with agitation.)
- Visual appearance ([2]; 1 mg/ml, Phosphate (7.4)): Clear

Structure (SMILES): CCCCCCCCCCCCCCCC(=O)NCCCC[C@H](NC(=O)[C@@H](NC(=O)[C@H](CCCCN)NC(=O)[C@H](CC(=O)O)NC(=O)[C@H](CCSC)NC(=O)[C@H](C)NC(=O)[C@@H](NC(=O)[C@H](CO)NC(=O)[C@H](Cc1ccc(O)cc1)NC(=O)[C@H](CC(=O)O)NC(=O)[C@H](CO)NC(=O)[C@@H](NC(=O)[C@H](Cc1ccccc1)NC(=O)[C@@H](NC(=O)CNC(=O)[C@@H](N)CCC(=O)O)[C@@H](C)O)[C@@H](C)CC)[C@@H](C)CC)[C@@H](C)CC)C(=O)N[C@@H](CCC(N)=O)C(=O)N[C@@H](CCC(N)=O)C(=O)N[C@@H](CC(=O)O)C(=O)N[C@@H](Cc1ccccc1)C(=O)N[C@H](C(=O)N[C@@H](CCC(=O)O)C(=O)N[C@@H](Cc1c[nH]c2ccccc12)C(=O)N[C@@H](CC(C)C)C(=O)N[C@@H](CC(C)C)C(=O)N[C@@H](C)C(=O)N[C@@H](CCC(N)=O)C(=O)N[C@@H](CCCCN)C(=O)N1CCC[C@H]1C(=O)N[C@@H](CO)C(=O)N[C@@H](CO)C(=O)NCC(=O)N[C@@H](C)C(=O)N1CCC[C@H]1C(=O)N1CCC[C@H]1C(=O)N1CCC[C@H]1C(=O)N[C@@H](CO)C(=O)O)C(C)C [AT751] (H-EGTFISDYSIAMDKIK(Palmitoyl)QQDFVEWLLAQKPSSGAPPPS-OH; N-terminus assumed)
- Avr lag time ([1]; 1 mg/ml, Phosphate (7.4)): <24 h
- Visual appearance ([2]; 1 mg/ml, Phosphate (7.4)): Clear

Structure (SMILES): CC[C@H](C)[C@H](NC(=O)[C@H](CCCCN)NC(=O)[C@H](CC(=O)O)NC(=O)[C@H](CCSC)NC(=O)C(C)(C)NC(=O)[C@@H](NC(=O)[C@H](CO)NC(=O)[C@H](Cc1ccc(O)cc1)NC(=O)[C@H](CC(=O)O)NC(=O)[C@H](CO)NC(=O)[C@@H](NC(=O)[C@H](Cc1ccccc1)NC(=O)[C@@H](NC(=O)CNC(=O)[C@@H](N)CCC(=O)O)[C@@H](C)O)[C@@H](C)CC)[C@@H](C)CC)C(=O)N[C@@H](CCCCNC(=O)CCCCCCCCCCCCCCC(=O)O)C(=O)N[C@@H](CCC(N)=O)C(=O)N[C@@H](CCC(N)=O)C(=O)N[C@@H](CC(=O)O)C(=O)N[C@@H](Cc1ccccc1)C(=O)N[C@H](C(=O)N[C@@H](CC(N)=O)C(=O)N[C@@H](Cc1c[nH]c2ccccc12)C(=O)N[C@@H](CC(C)C)C(=O)N[C@@H](CC(C)C)C(=O)N[C@@H](C)C(=O)N[C@@H](CCC(N)=O)C(=O)N[C@@H](CCCCN)C(=O)N1CCC[C@H]1C(=O)N[C@@H](CO)C(=O)N[C@@H](CO)C(=O)NCC(=O)N[C@@H](C)C(=O)N1CCC[C@H]1C(=O)N1CCC[C@H]1C(=O)N1CCC[C@H]1C(=O)N[C@@H](CO)C(=O)O)C(C)C [AT760] (H-EGTFISDYSI[Aib]MDKIK(C16 diacid)QQDFVNWLLAQKPSSGAPPPS-OH; N-terminus assumed)
- Avr lag time (h) ([1]; 1 mg/ml, Phosphate (7.4)): fnd (Fnd = fibrils not detected within experiment time (96 hours) with agitation.)
- Avr lag time (h) ([1]; 5 mg/ml, MilliQ): fnd (Fnd = fibrils not detected within experiment time (96 hours) with agitation.)
- Visual appearance ([2]; 1 mg/ml, Phosphate (7.4)): Clear
- Visual appearance ([2]; 5 mg/ml, MilliQ): Clear
